{"source": "paper PMC9133036", "about": "(Nature Communications, 2022)", "type_in_all_cases": "cell-based", "key": {"OX1R S103T": {"target": "T1, OX1R S103T (Homo sapiens, UniProt O43613, S103T)", "T1 construct": "FLAG; expressed in transfected cells; host or cells: HEK293", "T1 sequence (O43613 1-425 S103T)": "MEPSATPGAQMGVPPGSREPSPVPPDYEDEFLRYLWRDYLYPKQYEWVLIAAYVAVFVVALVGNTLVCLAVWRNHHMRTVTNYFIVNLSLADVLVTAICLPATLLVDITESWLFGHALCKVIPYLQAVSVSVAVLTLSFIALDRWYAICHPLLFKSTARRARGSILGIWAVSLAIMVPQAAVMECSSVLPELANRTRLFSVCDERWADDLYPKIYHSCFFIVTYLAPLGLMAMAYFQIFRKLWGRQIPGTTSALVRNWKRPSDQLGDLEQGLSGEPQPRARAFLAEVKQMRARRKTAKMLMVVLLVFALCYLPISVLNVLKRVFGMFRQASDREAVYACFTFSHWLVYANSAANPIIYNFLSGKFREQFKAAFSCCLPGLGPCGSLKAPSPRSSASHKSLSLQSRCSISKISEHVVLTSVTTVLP", "experiment": "IP accumulation assay, OX1R S103T", "from_the_text": "The IP assay was adapted from a prior precedent. HEK293 cells were maintained in DMEM-high glucose (Millipore Sigma) supplemented with 5% fetal bovine serum (Corning) and penicillin-streptomycin (Millipore Sigma). Receptor constructs used were the full-length wild-type (or mutant) human OX1R and OX2R sequences cloned into pCDNA3. To enhance the Emax in the IP assay, a plasmid encoding full-length human Gαq subunit[66] was co-transfected into HEK293 cells with plasmids encoding orexin receptor constructs using Lipofectamine 3000 (Thermo Fisher). 24 h after transfection, the cells were plated on poly-D-lysine coated (Millipore Sigma) tissue culture-treated 96 well white plates with clear bottoms (Perkin Elmer) at 30,000 cells per well in Inositol-free DMEM (MP Biomedicals) supplemented with 5% fetal bovine serum, 4 mM L-glutamine (Millipore Sigma), penicillin-streptomycin, and about 5 uCi (5 ul) per ml myo-[2-3H] inositol (Perkin Elmer). The following day, the media was replaced with agonists that were diluted in HBSS (Millipore Sigma) containing 10 mM lithium chloride (Millipore Sigma) and incubated at 37 °C for 45 min. Then agonists were removed and cells were lysed on ice for 30 min with 10 mM formic acid (Millipore Sigma). 1.25 mg of poly-lysine coated YSI SPA beads (Perkin Elmer) was added to each well. The plates were mixed on an orbital shaker for 30 min. The plates were read on a MicroBeta scintillation counter (Perkin Elmer) the following day. IP accumulation assays on different constructs were performed in n ≥ 3 independent experiments (each done in duplicate), where n is shown in Supplementary Table 2."}, "OX2R F228A": {"target": "T2, OX2R F228A (Homo sapiens, UniProt O43614, F228A)", "T2 construct": "expressed in transfected cells; host or cells: CHO-K1 stably expressing EA β-arrestin2", "T2 sequence (O43614 whole entry F228A)": "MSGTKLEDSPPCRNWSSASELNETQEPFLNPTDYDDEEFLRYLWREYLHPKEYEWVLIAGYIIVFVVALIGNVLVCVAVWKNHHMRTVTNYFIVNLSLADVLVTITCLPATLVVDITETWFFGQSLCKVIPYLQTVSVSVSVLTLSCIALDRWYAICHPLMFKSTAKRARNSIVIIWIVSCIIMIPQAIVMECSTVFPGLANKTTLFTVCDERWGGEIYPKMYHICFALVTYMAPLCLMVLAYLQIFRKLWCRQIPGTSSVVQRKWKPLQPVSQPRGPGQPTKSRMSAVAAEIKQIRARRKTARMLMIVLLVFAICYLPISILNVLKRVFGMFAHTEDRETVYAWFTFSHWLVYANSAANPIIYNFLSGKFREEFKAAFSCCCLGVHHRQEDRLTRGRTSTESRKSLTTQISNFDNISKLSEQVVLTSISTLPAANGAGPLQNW", "experiment": "β-arrestin PathHunter assay, OX2R F228A", "settings": "β-arrestin recruitment", "method": "(§1) β-Arrestin recruitment activity was measured by using the PathHunter system (DiscoveRX) according to the manufacturer’s instruction. Receptor constructs used were the full-length wild-type (or mutant) human OX2R sequences cloned into pCMV-ProLink (DiscoveRX). CHO-K1 cells stably expressing EA β-arrestin2 (DiscoveRX) were plated on 384 well white plates (Thermo Fisher) at 4000 cells/well in HamF12 (Wako Pure Chemical Industries) supplemented with 10% fetal bovine serum (Corning) and penicillin-streptomycin (Wako Pure Chemical Industries) and incubated overnight at 37 °C under 5% CO2. Cells were transfected with plasmids encoding wild type or each mutant ProLink-tagged human OX2R using FuGENE HD (Promega). […] Detection reagent was added and incubated for 1 h at room temperature. Luminescent signal was detected using an EnVision plate reader (PerkinElmer). β-arrestin assays on different constructs were performed in two or three independent experiments (each done in quadruplicate). Dose response curves (shown in Supplementary Fig. 8) were fitted to the three-parameter model ‘log(agonist) vs response’ in GraphPad Prism to determine pEC50 values."}, "OX2R Q134A": {"target": "T3, OX2R Q134A (Homo sapiens, UniProt O43614, Q134A)", "T3 sequence (O43614 1-444 Q134A)": "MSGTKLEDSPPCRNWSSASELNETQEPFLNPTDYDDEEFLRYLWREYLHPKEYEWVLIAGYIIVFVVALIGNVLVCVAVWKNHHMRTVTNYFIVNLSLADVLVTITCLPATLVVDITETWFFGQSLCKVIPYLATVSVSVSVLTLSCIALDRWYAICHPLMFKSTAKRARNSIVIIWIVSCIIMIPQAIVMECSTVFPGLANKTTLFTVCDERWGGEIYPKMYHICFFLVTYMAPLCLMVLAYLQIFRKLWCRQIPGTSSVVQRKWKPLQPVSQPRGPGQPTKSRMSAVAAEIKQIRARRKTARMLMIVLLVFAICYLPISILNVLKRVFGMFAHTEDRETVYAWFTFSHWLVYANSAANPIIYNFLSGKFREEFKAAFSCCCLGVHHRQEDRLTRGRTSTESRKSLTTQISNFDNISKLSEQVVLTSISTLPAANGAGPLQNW", "experiment": "β-arrestin PathHunter assay, OX2R Q134A", "design": "expressed in transfected cells; host or cells: CHO-K1 stably expressing EA β-arrestin2", "settings": "for EC50: β-arrestin recruitment", "method": "as §1"}, "OX2R Y232A": {"target": "T4, OX2R Y232A (Homo sapiens, UniProt O43614, Y232A)", "T4 construct": "expressed in transfected cells; host or cells: CHO-K1 stably expressing EA β-arrestin2", "T4 sequence (O43614 whole entry Y232A)": "as the sequence (O43614 whole entry F228A) above, with A228F, Y232A counted along it", "experiment": "β-arrestin PathHunter assay, OX2R Y232A", "settings": "β-arrestin recruitment", "method": "as §1"}}, "note": "Where two headings read alike, the source gives them in different places."}
{"smiles": "COC(=O)N1CCC[C@H](NS(C)(=O)=O)[C@@H]1CO[C@H]1CC[C@@H](c2ccccc2)CC1", "note": "[TAK-925, methyl (2R,3S)−3-[(methylsulfonyl)amino]−2-{[(cis−4-phenylcyclohexyl)oxy]methyl}piperidine-1-carboxylate]", "values": [{"measurement": "activation at 100 µM", "setting": "OX1R S103T; 0.75 h, TAK-925 conc (log, M) -4.00", "result": 122, "unit": "%"}, {"measurement": "activation at 11.2 µM", "setting": "OX1R S103T; 0.75 h, TAK-925 conc (log, M) -4.95", "result": 88.4, "unit": "%"}, {"measurement": "activation at 3.72 µM", "setting": "OX1R S103T; 0.75 h, TAK-925 conc (log, M) -5.43", "result": 57.1, "unit": "%"}, {"measurement": "activation at 1.23 µM", "setting": "OX1R S103T; 0.75 h, TAK-925 conc (log, M) -5.91", "result": 21.9, "unit": "%"}, {"measurement": "activation at 0.0457 µM", "setting": "OX1R S103T; 0.75 h, TAK-925 conc (log, M) -7.34", "result": 9.04, "unit": "%"}, {"measurement": "EC50", "setting": "OX1R S103T; IP accumulation", "result": 5.3, "unit": "µM"}, {"measurement": "Emax", "setting": "OX1R S103T; relative to OX1R S103T/A127T/TAK-925", "result": 130}, {"measurement": "EC50", "setting": "OX2R F228A", "result": 0.6, "unit": "µM"}, {"measurement": "β-arrestin recruitment, change on mutation of Gln134", "setting": "OX2R Q134A", "result": "large reductions"}, {"measurement": "EC50", "setting": "OX2R Q134A; pEC50 ± SEM, read-out: pEC50 (converted)", "result": "> 30.2", "unit": "µM"}, {"measurement": "EC50", "setting": "OX2R Q134A; read-out: EC50", "result": "> 30", "unit": "µM"}, {"measurement": "EC50", "setting": "OX2R Y232A", "result": 8.5, "unit": "µM"}]}
